From patent US20110003393A1, “SYSTEMS AND METHODS FOR STUDYING INFLUENZA” (President and Fellows of Harvard College, priority 2007, published 2011)

Key:
[1] = target: T1, M2 proton channel of the influenza A virus (Influenza A virus, UniProt P0DOF5, C19S/C50S); format: binding, influenza A virus (A/Udorn)
[2] = target: T1, M2 proton channel of the influenza A virus; format: binding, influenza A virus (A/Udorn); details: pH 7.5, 40 mM rimantadine, 0.75 mM M2(18-60) monomer, 300 mM DHPC, four NOESY spectra

CC(N)C12CC3CC(CC(C3)C1)C2 (stereo not drawn) [rimantadine]
affinity for the open state of the channel ([1]; pH 6): much lower affinity, if any, for the open state
effect of binding on channel conformation ([1]; pH 7): stabilizes the closed conformation
location of binding site from protein-rimantadine NOEs [2]: between adjacent helices at the C-terminal end of the TM domain near the Trp41 gate, on the membrane side of the channel
